The values that follow come from article PMC4441536 (Journal of Medicinal Chemistry, 2015).

For data set [1], the target named is CB1 (h) (Homo sapiens, UniProt P21554).
In data set [2] the target is M3 (h) (Homo sapiens, UniProt P20309).
The target in data set [3] is 5-HT1A (h) (Homo sapiens, UniProt P08908).
The conditions of data set [4]: mouse, in vivo; for AUC / Cmax / Terminal Half-Life: 5 mg/kg.
Data set [5] is described as follows: in vivo. The following applies: mouse, 5 mg/kg; for half-life: Terminal Half-Life.
Data set [6] in a line: physchem. The following applies: D2O.
Data set [7] in a line: physchem.
Data set [8] deals with A3 (h) (Homo sapiens, UniProt P0DMS8).
Data set [9] deals with 5-HT3 (h) (Homo sapiens, UniProt P46098).
For data set [10], the target named is B2 (h) (Homo sapiens, UniProt P30411).
Data set [11] addresses NK3 (h) (Homo sapiens, UniProt P29371).
Data set [12] deals with D1 (h) (Homo sapiens, UniProt P21728).
Data set [13] has as its target NK2 (h) (Homo sapiens, UniProt P21452).
Data set [14] addresses beta 1 (h) (Homo sapiens, UniProt P08588).
Data set [15] has as its target H2 (h) (Homo sapiens, UniProt P25021).
Data set [16] addresses 5-HT2A (h) (Homo sapiens, UniProt P28223).
Data set [17] deals with MT1 (ML1A) (h) (Homo sapiens, UniProt P48039).
The target in data set [18] is M2 (h) (Homo sapiens, UniProt P08172).
In data set [19] the target is AT1 (h) (Homo sapiens, UniProt P30556).
For data set [20], the target named is 5-HT1B (Rattus norvegicus, UniProt P28564).
Data set [21] addresses 5-HT5a (h) (Homo sapiens, UniProt P47898).
Data set [22] has as its target 5-HT6 (h) (Homo sapiens, UniProt P50406).
Data set [23] has as its target 5-HT7 (h) (Homo sapiens, UniProt P34969).
In data set [24] the target is D2S (h) (Homo sapiens, UniProt P14416).
[25] abbreviates: iv, IV 5 mg/kg, individual animals 2, 3, 4.
[26] abbreviates: po, PO 5 mg/kg, individual animals 6, 7, 8.

Values after ≈ are worked out from the molar mass of the structure shown. Values joined by “and” are separate entries in the source; they are usually repeats but may differ in a detail not shown here. Identical values can stand only once. Like-named read-outs stand apart in the source and are kept apart here.

Sequence of NK2 (h) (P21452 whole entry): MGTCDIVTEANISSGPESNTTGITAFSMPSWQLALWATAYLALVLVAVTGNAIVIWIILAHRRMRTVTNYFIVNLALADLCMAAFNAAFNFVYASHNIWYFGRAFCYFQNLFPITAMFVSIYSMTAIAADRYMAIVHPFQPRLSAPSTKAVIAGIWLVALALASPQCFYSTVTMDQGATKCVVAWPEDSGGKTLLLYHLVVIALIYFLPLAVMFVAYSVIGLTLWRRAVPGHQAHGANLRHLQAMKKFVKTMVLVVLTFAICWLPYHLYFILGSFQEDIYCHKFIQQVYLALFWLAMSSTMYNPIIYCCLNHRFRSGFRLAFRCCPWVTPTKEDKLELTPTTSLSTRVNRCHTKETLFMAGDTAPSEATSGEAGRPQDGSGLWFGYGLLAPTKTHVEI
Sequence of 5-HT7 (h) (P34969 whole entry): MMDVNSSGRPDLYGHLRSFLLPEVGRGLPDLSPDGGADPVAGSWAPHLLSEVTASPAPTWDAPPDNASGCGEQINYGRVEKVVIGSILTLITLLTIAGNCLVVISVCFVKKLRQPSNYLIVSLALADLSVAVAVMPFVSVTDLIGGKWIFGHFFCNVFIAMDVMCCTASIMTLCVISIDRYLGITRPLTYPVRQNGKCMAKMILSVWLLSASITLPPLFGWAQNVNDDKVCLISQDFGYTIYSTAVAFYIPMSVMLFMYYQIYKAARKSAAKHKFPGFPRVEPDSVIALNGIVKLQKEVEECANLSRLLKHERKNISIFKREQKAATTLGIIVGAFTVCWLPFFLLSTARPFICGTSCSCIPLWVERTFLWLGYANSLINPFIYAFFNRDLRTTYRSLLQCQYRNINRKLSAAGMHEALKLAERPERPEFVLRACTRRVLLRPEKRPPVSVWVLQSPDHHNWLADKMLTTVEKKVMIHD
Sequence of H2 (h) (P25021 whole entry): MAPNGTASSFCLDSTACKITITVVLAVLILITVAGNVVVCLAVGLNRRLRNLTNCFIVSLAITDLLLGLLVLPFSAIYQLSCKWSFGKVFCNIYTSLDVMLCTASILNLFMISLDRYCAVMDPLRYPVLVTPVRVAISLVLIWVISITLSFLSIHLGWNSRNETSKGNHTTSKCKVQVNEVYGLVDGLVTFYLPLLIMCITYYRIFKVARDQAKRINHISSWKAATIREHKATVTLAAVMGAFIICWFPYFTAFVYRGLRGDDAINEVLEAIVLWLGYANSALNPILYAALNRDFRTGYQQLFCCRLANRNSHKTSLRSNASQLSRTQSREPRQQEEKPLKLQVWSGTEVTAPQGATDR
Sequence of AT1 (h) (P30556 whole entry): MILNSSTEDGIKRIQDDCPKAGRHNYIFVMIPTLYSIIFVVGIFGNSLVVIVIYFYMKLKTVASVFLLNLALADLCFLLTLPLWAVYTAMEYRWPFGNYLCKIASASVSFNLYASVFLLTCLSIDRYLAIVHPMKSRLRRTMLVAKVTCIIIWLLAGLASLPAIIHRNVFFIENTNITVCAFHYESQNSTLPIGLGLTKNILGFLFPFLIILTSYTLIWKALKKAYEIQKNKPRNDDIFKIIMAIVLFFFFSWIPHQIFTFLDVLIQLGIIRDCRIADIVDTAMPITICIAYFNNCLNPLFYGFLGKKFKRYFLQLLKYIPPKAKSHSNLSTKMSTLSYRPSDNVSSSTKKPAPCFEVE
Sequence of D2S (h) (P14416 1-414 isoform P14416-2): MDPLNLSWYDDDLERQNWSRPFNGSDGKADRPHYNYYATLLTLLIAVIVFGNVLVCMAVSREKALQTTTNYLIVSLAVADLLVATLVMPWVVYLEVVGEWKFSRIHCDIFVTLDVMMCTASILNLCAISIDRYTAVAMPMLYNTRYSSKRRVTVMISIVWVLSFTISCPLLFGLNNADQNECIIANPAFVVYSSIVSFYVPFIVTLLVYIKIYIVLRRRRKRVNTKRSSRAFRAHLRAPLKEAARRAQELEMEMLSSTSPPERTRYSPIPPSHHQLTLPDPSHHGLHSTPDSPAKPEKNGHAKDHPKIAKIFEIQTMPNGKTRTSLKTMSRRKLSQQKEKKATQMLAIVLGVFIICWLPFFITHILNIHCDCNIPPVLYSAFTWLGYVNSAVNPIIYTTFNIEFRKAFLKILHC
Sequence of B2 (h) (P30411 whole entry): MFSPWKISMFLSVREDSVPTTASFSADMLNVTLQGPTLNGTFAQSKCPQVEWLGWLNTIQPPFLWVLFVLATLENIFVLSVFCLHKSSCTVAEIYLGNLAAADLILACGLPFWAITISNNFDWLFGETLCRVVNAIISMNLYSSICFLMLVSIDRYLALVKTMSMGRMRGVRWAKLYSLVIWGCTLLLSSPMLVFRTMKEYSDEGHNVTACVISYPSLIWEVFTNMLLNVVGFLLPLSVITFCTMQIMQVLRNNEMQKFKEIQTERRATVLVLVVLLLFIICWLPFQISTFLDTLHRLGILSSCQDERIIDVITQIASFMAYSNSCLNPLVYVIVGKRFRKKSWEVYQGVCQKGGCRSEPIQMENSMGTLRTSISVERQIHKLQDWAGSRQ
Sequence of 5-HT3 (h) (P46098 24-478): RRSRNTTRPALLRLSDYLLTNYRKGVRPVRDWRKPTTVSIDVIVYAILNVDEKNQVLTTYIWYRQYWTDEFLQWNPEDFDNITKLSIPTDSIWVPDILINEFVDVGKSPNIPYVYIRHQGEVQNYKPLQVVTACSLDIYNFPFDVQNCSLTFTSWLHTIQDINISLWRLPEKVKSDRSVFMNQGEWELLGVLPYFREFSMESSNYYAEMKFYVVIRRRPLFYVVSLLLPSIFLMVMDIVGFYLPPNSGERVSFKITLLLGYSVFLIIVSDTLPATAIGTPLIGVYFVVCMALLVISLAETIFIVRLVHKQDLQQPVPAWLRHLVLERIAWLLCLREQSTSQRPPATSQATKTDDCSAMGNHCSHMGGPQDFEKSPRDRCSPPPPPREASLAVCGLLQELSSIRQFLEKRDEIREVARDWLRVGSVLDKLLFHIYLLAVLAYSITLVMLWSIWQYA
Sequence of 5-HT1B (P28564 whole entry): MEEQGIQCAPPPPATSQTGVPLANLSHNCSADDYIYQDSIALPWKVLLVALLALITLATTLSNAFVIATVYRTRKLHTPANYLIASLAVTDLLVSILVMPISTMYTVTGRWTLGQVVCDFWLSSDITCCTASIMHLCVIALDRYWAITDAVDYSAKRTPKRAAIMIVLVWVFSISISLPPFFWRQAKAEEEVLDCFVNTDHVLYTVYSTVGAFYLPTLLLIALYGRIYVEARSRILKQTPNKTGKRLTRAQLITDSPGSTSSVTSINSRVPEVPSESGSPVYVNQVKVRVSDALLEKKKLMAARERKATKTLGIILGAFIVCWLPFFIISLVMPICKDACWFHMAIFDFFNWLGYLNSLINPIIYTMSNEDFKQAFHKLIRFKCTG
Sequence of NK3 (h) (P29371 whole entry): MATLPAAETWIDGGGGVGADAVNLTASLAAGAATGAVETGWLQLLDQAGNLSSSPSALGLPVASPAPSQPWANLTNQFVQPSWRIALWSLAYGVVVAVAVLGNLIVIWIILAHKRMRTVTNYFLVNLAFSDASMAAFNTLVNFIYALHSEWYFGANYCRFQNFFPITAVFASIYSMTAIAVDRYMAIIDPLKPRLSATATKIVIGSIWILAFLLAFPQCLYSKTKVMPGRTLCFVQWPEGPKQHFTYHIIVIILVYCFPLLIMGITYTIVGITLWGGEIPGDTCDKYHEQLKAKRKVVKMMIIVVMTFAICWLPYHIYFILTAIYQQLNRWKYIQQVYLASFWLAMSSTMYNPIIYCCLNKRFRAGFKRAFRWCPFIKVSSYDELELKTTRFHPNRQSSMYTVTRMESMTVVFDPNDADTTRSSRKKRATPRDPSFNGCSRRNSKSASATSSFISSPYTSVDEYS
Sequence of 5-HT1A (h) (P08908 whole entry): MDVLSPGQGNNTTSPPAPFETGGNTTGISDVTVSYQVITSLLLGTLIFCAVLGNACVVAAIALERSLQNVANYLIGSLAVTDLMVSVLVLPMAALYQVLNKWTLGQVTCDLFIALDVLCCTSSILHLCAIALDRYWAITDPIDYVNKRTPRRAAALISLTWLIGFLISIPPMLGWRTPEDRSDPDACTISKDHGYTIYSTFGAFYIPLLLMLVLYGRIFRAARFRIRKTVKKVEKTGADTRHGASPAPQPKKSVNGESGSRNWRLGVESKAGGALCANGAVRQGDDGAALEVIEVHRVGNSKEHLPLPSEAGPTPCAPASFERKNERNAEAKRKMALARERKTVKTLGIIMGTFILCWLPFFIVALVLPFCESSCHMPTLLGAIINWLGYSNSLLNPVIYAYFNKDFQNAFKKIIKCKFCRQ
Sequence of MT1 (ML1A) (h) (P48039 whole entry): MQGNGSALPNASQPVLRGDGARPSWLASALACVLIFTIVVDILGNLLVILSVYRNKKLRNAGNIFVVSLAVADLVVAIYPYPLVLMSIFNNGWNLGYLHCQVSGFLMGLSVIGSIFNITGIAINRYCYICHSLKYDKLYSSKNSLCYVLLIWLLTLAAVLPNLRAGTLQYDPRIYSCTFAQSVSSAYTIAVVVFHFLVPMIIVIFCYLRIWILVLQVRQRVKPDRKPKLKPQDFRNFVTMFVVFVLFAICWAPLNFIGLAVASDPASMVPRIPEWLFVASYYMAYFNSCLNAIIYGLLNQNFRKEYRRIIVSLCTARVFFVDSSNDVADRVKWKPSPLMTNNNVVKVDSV
Sequence of 5-HT6 (h) (P50406 whole entry): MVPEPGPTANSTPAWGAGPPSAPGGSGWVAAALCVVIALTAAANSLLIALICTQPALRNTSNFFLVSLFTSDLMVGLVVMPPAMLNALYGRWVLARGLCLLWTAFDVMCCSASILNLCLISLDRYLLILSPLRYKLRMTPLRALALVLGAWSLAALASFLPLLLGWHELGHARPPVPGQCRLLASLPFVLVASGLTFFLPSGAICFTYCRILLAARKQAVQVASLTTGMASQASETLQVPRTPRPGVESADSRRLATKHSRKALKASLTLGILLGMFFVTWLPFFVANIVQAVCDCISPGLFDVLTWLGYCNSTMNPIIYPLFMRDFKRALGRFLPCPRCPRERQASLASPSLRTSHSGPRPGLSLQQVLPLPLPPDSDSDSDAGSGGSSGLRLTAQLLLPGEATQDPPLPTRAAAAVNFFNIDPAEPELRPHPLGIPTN

Turning to `CCCCCCC(C)(C)c1ccc([C@@H]2C[C@H](O)CC[C@H]2CCCO)c(O)c1` [CP 55940], in [1], the “nH Ref” value came out at 0.8. Turning to `C[N+]1(C)CCC(OC(=O)C(c2ccccc2)c2ccccc2)CC1.[I-]` [Compound 4-DAMP, 4-DAMP], the “nH Ref” value in data set [2] stood at 1.3. For the compound `CCCN(CCC)C1CCc2cccc(O)c2C1` (centres unmarked) [Compound 8-OH-DPAT, 8-OH-DPAT], in data set [3], the “nH Ref” value was 1.2. Consider `Cn1cc(CCn2cnc(-c3cnn(C)c3)c2-c2ccc(C#N)cc2)cn1` [Compound 13, 4-(4-(1-methyl-1H-pyrazol-4-yl)-1-(2-(1-methyl-1H-pyrazol-4-yl)ethyl)-1H-imidazol-5-yl)benzonitrile], for which the volume of distribution result in data set [4] is reported as “moderate”. In addition, in data set [4] (iv), the AUC is 5.875 µM·h and 7.614 µM·h; the Cmax is 10.4 µM and 13.8 µM; the “Terminal Half-Life” value was 59.8 min and 56.6 min. In addition, in data set [4] (po), the AUC was 5.161 µM·h and 4.542 µM·h; the Cmax is 6.12 µM and 4.88 µM; the “Terminal Half-Life” value is 68.4 min and 49.3 min. Also, in data set [5] (setting [25]), the Cmax is 9.53 µM and the half-life was 50.9 min. The Tmax in data set [5] (iv, Tmax, IV 5 mg/kg, individual animals 2, 3, 4) is 4.98 min. In data set [5] (po), this compound showed a bioavailability of 70%. In data set [5] (setting [26]), this compound had a Cmax of 6.46 µM and a half-life of 45.4 min. The compound also yielded a solubility at 24 h in data set [6] of 25 mM (≈ 8940 µg/mL). This compound also showed a logD in [7] of 1.05.

`CNC(=O)[C@H]1O[C@@H](n2cnc3c(NCc4cccc(I)c4)ncnc32)[C@H](O)[C@@H]1O` [IB-MECA]: the “nH Ref” value in data set [8] is 0.7.

With `CN1[C@@H]2CC[C@H]1C[C@@H](OC(=O)c1cc(Cl)cc(Cl)c1)C2` [MDL 72222], the “nH Ref” value in data set [9] is recorded as 1.1. `N=C(N)NCCC[C@@H](N)C(=O)N[C@@H](CCCNC(=N)N)C(=O)N1CCC[C@H]1C(=O)N1C[C@H](O)C[C@H]1C(=O)NCC(=O)N[C@@H](Cc1ccccc1)C(=O)N[C@@H](CO)C(=O)N[C@H](Cc1ccccc1)C(=O)N[C@@H](Cc1ccccc1)C(=O)N[C@@H](CCCNC(=N)N)C(=O)O` [NPC 567]: the “nH Ref” value in data set [10] is recorded as 0.8. With `CC[C@H](NC(=O)c1c(C)c(-c2ccccc2)nc2ccccc12)c1ccccc1` [SB 222200], the “nH Ref” value in [11] is 1.0. As to `CN1CCc2cc(Cl)c(O)cc2[C@@H](c2ccccc2)C1` [SCH 23390], the “nH Ref” value in data set [12] is 0.9. As for `CCCC[C@H](NC(=O)[C@H](CC(C)C)NC(=O)CNC(=O)[C@@H](NC(=O)[C@H](Cc1ccccc1)NC(=O)[C@H](CO)NC(=O)[C@@H](N)CC(=O)O)C(C)C)C(N)=O` [[Nleu10]-NKA (4-10)], the “nH Ref” value in data set [13] is recorded as 0.9. As for `CC(C)NCC(O)COc1ccc(CC(N)=O)cc1` (centres unmarked) [atenolol], the “nH Ref” value in [14] amounted to 0.9. With `CN/C(=N/CCSCc1nc[nH]c1C)NC#N` [cimetidine], in [15], the “nH Ref” value was 0.9. Consider `O=C(c1ccc(F)cc1)C1CCN(CCn2c(=O)[nH]c3ccccc3c2=O)CC1` [ketanserin], for which the “nH Ref” value in data set [16] was 1.2. Take `COc1ccc2[nH]cc(CCNC(C)=O)c2c1` [melatonin]: the “nH Ref” value in data set [17] was 1.3. With `COc1ccccc1CNCCCCCCNCCCCCCCCNCCCCCCNCc1ccccc1OC` [methoctramine], in [18], the “nH Ref” value is reported as 0.8. On to `CNCC(=O)N[C@@H](CCCN=C(N)N)C(=O)N[C@H](C(=O)N[C@@H](Cc1ccc(O)cc1)C(=O)N[C@H](C(=O)N[C@@H](Cc1cnc[nH]1)C(=O)N1CCC[C@H]1C(=O)N[C@@H](C)C(=O)O)C(C)C)C(C)C` [saralasin], for which the “nH Ref” value in [19] was 0.9. As to `NCCc1c[nH]c2ccc(O)cc12` [serotonin], the “nH Ref” value in data set [20] came to 1.2; in data set [21], 0.7; in data set [22], 0.8; in data set [23], 0.6. Take (+)butaclamol: in [24], the “nH Ref” value is 1.3.
